What was measured:
LPS endotoxin = test: Pharmacodynamic analysis of E5564 in vivo: LPS challenge in dogs, plasma TNF-α by bioassay; design: species or system beagle dogs; details: for TNF-α at 1 hour / TNF-α at 2 hours: plasma; for TNF-α at 1 hour: 1 h after LPS 300 ng/kg i.v.; for TNF-α at 2 hours: 2 h after LPS 300 ng/kg i.v.
Method: FIG. 1 is a graph showing the anti-endotoxin activity of E5564 after a single bolus injection. LPS endotoxin (300 ng/kg) was injected intravenously into untreated dogs (∘) or simultaneously with 0.1 mg/kg E5564 (Δ) one hour after E5564 administration (□) or three hours after E5564 administration (●). Blood was drawn and analyzed for TNF-α concentration by bioassay, as is described in the Materials and Methods section, below. Each value represents the mean±S.E.M. of four animals.
In general, the candidate antagonist is administered to a test species of animal, and an appropriate dose of endotoxin (lipopolysaccharide (LPS)) is administered to test the ability of the candidate antagonist to block the effects of endotoxin. Some of the experiments described below use an in vivo challenge of LPS given intravenously both during and after intravenous infusion of E5564. Activity of an antagonist can also be assayed ex vivo by removing blood samples from animals treated with the candidate antagonist and testing that blood to determine if the drug is active and/or present in sufficient quantities to inhibit cellular activation by LPS. In both assays, activity of the antagonist is quantitated by analysis of the cytokines induced by LPS administration. In addition, other physiological symptoms of endotoxin poisoning can be used as readouts of activity. Studies described herein use TNF-α and/or IL-6 as readouts of cellular activation, but a variety of other cytokines and cellular mediators can also be used for this purpose.
As is shown in FIG. 1 and Table 1, delivery of 300 ng/kg of LPS into beagle dogs (“control” in FIG. 1) elicits a strong, reproducible response, as measured by levels of plasma TNF-α. […] This short activity lifetime (i.e., pharmacodynamic half-life) is an unexpected result, as the pharmacokinetic half-life of E5564 is extremely long in comparison (see below). Thus, while the unmodified (unmetabolized) drug appears to remain in circulation for a relatively long period of time, it loses activity. Because of this unexpected discovery, we have chosen to administer E5564 by infusion.
E5564 was synthesized by Eisai Research Institute of Boston, Andover, Mass., U.S.A. E5564 drug product was manufactured at the Eisai Preclinical Laboratory (Tsukuba, Japan) by dissolving 35.4 mg of drug substance in 52.1 ml 0.01 N NaOH, stirring for one hour at room temperature, and diluting into phosphate-buffered lactose. After adjusting the pH to 7.3 and diluting to a final concentration of 0.1 mg/ml E5564, the solution was filter-sterilized and lyophilized.
Escherichia coli LPS (Serotype 0111:B4; phenol extracted, Cat. # L-2630) was purchased from Sigma Chemical Co. Ltd., St. Louis, Mo., U.S.A. Lyophylized E5564 was solubilized in 5 ml of sterile water (Otsuka Pharm. Co. Ltd., Tokyo, Japan). LPS was weighed to an accuracy of 1/10 mg and solubilized in 5% glucose (Otsuka Pharm. Co. Ltd., Tokyo, Japan). The LPS solution was sonicated with a bath-type sonicator for 15 minutes after which aliquots were immediately prepared and stored at −20° C. Prior to use, the solution was sonicated for one or two minutes, and then dilutions were prepared in 5% glucose.
Nine month-old beagles were obtained from Kawashima-shoji Co. Ltd., Gifu, Japan) and housed in stainless steel wire cages (W 800 mm×D 680 mm×H 680 mm; one dog per cage) in a room with a constant temperature of 20-24° C., humidity of 45-65%, and 12 hour light-dark cycle. The animals were provided with pellet food (DS, Oriental Yeast Co., Tokyo, Japan) and water ad libitum. LPS endotoxin (300 ng/0.1 ml/kg) was injected into the vein of the right foreleg at a rate of 1-2 ml/minute, and E5564 was injected into the vein of the left foreleg at a rate of 10-20 ml/minute.
Immediately before or 1, 2, or 4 hours after intravenous injection of LPS and E5564, 1.5 ml of blood was drawn from the left cephalic vein. […]

[1] = Plasma pharmacokinetics of E5564 after single bolus intravenous injection; assay type: in vivo, dogs; details: single bolus i.v.
Method: FIG. 3 is a graph showing the plasma levels of E5564 after a single bolus injection. After bolus administration of 0.1 mg/kg E5564 (∘), 0.3 mg/kg E5564 (□), and 1 mg/kg E5564 (▪), blood was drawn and analyzed for E5564 concentration by extraction and analysis by HPLC. Each value represents the mean±S.E.M. of three animals. No drug was detectable in samples drawn prior to dosing.
(§1) This long-term presence of unmodified E5564 in blood initially led us to believe that active drug was likely present for very long periods of time after cessation of drug administration.

[2] = Plasma pharmacokinetics of E5564 after 72 hours intravenous infusion; assay type: in vivo, beagle dogs; details: 72 h i.v. infusion; for T½: after end of infusion
Method: FIG. 4 is a graph showing the plasma levels of E5564 during and after 72 hours of intravenous infusion. […] At the indicated times, blood was drawn and analyzed for E5564 concentration by extraction and analysis by HPLC. Each value represents the mean±S.E.M. of three animals. No drug was detectable in samples drawn prior to dosing.
as §1

[3] = Relative toxicity of E5564 versus B531 (animal studies); details: E5564 compared with B531
[4] = 0.1 mg/kg E5564 bolus one hour before LPS
[5] = 0.1 mg/kg E5564 bolus three hours before LPS

Q: Which “Blocking of LPS challenge (plasma TNF-α)” value (LPS endotoxin; 0.1 mg/kg E5564 given at the same time as LPS 300 ng/kg) does the source give for `CCCCCC/C=C\CCCCCCCCCC(=O)N[C@H]1[C@H](OC[C@H]2O[C@H](OP(=O)(O)O)[C@H](NC(=O)CC(=O)CCCCCCCCCCC)[C@@H](OCCCCCCCCCC)[C@@H]2O)O[C@H](COC)[C@@H](OP(=O)(O)O)[C@@H]1OCC[C@@H](CCCCCCC)OC` [E5564, α-D-Glucopyranose, 3-O-decyl-2-deoxy-6-O-[2-deoxy-3-O-[(3R)-3-methoxydecyl)-6-O-methyl-2-[[(11Z)-1-oxo-11-octadecenyl)amino]-4-O-phosphono-β-D-glucopyranosyl]-2-[(1,3-dioxotetradecyl)amino]-,1-(dihydrogen phosphate)] here?
A: completely effective

Q: What about the “Response to LPS (% of control)” value (LPS endotoxin; E5564 one hour before LPS) of the same molecule?
A: 0 % of control

Q: What about the “Sum of TNF-α (AUC)” value (LPS endotoxin; E5564 one hour before LPS) of the same molecule?
A: 0 units/ml

Q: What about the “Inhibition of LPS response” value (LPS endotoxin; E5564 simultaneously with LPS) of the same molecule?
A: 100

Q: And the “Response to LPS (% of control)” value (LPS endotoxin; E5564 simultaneously with LPS)?
A: 0 % of control

Q: What about the “Response to LPS (% of control)” value (LPS endotoxin; E5564 three hours before LPS) of the same molecule?
A: 52 % of control

Q: What about the “Activity of the endotoxin antagonist remaining” value (LPS endotoxin; LPS administered three hours after 0.1 mg/kg E5564) of the same molecule?
A: about 48 % of its original activity

Q: What about the “TNF-α at 1 hour” value (LPS endotoxin; [4]) of the same molecule?
A: 0 units/ml

Q: And the “TNF-α at 1 hour” value (LPS endotoxin; 0.1 mg/kg E5564 bolus simultaneously with LPS, four dogs)?
A: 0 units/ml

Q: And the “TNF-α at 1 hour” value (LPS endotoxin; [5])?
A: 1353 ± 340 units/ml

Q: And the “TNF-α at 2 hours” value (LPS endotoxin; [4])?
A: 0 units/ml

Q: What about the “TNF-α at 2 hours” value (LPS endotoxin; 0.1 mg/kg E5564 bolus simultaneously with LPS) of the same molecule?
A: 0 units/ml

Q: And the “TNF-α at 2 hours” value (LPS endotoxin; [5])?
A: 190 ± 113 units/ml

Q: What about the AUC ([1]; 0.1 mg/kg dose) of the same molecule?
A: 71.8255 ± 1.981 µg·h/mL

Q: What about the T½ ([1]; 0.1 mg/kg dose) of the same molecule?
A: 41.7 ± 2.7 h

Q: And the AUC ([1]; 0.3 mg/kg)?
A: 270.8972 µg·h/mL

Q: What about the T½ ([1]; 0.3 mg/kg) of the same molecule?
A: 50.4 ± 2.2 h

Q: And the AUC ([1]; 1 mg/kg)?
A: 743.5446 µg·h/mL

Q: What about the T½ ([1]; 1 mg/kg) of the same molecule?
A: 46.4 ± 2.7 h

Q: What about the AUC0-144 hours ([2]; dose 0.1 mg/kg, female) of the same molecule?
A: 790 ± 51 µg·h/mL

Q: And the C72 hours ([2]; dose 0.1 mg/kg, female)?
A: 10350 ± 930 ng/mL

Q: What about the AUC0-144 hours ([2]; dose 0.1 mg/kg, male) of the same molecule?
A: 1069 ± 139 µg·h/mL

Q: What about the C72 hours ([2]; dose 0.1 mg/kg, male) of the same molecule?
A: 13070 ± 1220 ng/mL

Q: What about the AUC0-144 hours ([2]; dose 0.3 mg/kg, female) of the same molecule?
A: 2616 ± 737 µg·h/mL

Q: And the C72 hours ([2]; dose 0.3 mg/kg, female)?
A: 32400 ± 5720 ng/mL

Q: And the AUC0-144 hours ([2]; dose 0.3 mg/kg, male)?
A: 3309 ± 485 µg·h/mL

Q: And the C72 hours ([2]; dose 0.3 mg/kg, male)?
A: 41290 ± 7180 ng/mL

Q: What about the AUC0-144 hours ([2]; dose 1 mg/kg, female) of the same molecule?
A: 29642 ± 1514 µg·h/mL

Q: What about the C72 hours ([2]; dose 1 mg/kg, female) of the same molecule?
A: 393900 ± 14200 ng/mL

Q: And the AUC0-144 hours ([2]; dose 1 mg/kg, male)?
A: 27114 ± 5737 µg·h/mL

Q: What about the C72 hours ([2]; dose 1 mg/kg, male) of the same molecule?
A: 366000 ± 69300 ng/mL

Q: What about the T½ ([2]; dose 0.1 mg/kg, female) of the same molecule?
A: 40.9 ± 9.5 h

Q: What about the T½ ([2]; dose 0.1 mg/kg, male) of the same molecule?
A: 38.4 ± 4.5 h

Q: And the T½ ([2]; dose 0.3 mg/kg, female)?
A: 38.0 ± 11.6 h

Q: And the T½ ([2]; dose 0.3 mg/kg, male)?
A: 39.9 ± 11.2 h

Q: What about the T½ ([2]; dose 1 mg/kg, female) of the same molecule?
A: 32.0 ± 2.8 h

Q: What about the T½ ([2]; dose 1 mg/kg, male) of the same molecule?
A: 35.1 ± 8.7 h

Q: And the “Toxicity relative to B531” value [3]?
A: about twenty-fold less toxic than B531

— US20050215517A1, “Use of an anti-endotoxin drug in the prevention and treatment of disease” (priority 1999, published 2005)
